Patent US20230286973A1, “PROTEIN SECRETION INHIBITORS” (KEZAR LIFE SCIENCES, priority 2020, published 2023)
pEC50, pIC50: −log10 of the molar value.

Tests used:
[1] = system: PD1-ss+10aa/Gaussia Luciferase; assay: Dox-Induced PD1-ss-Gluc Assay; assay type: cell-based; settings: 24 hr Dox induction; 293FRT/TO cells; read-out: 24 hr Dox Inducible PD1ssGluc 293FRT/TO: Mean IC50
How it was run: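 Flp-In 293 T-REx cells stably carrying a doxycycline-inducible Gaussia luciferase fused to the PD1 signal sequence plus 10 aa were plated the day before. Compound dilutions in DMSO/media containing doxycycline were then added and incubated at 37 °C, 5% CO2. Data for undefined stereochemistry refer to stereoisomer mixtures.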

[2] = system: TNFα-FL/Gaussia Luciferase; assay: Dox Induced TNFα-FL-Gluc Assay; assay type: cell-based; settings: for pIC50: 24 hr Dox induction, 293FRT/TO cells, read-out: 24 hr Dox Inducible TNFaFLGluc 293FRT/TO: Mean IC50; for 24 hr Dox Inducible TNFaFLGluc 293FRT/TO: TNF/PD1: ratio of TNFaFLGluc IC50 to PD1ssGluc IC50
How it was run: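 Stereoisomer mixtures were tested where stereochemistry is not drawn. Induction used doxycycline added together with compound dilutions in DMSO/media to Flp-In 293 T-REx cells carrying a T-REx-regulated TNFα (aa 1-233)-Gaussia luciferase construct, then incubated at 37 °C, 5% CO2.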

[3] = system: HER3-ss+4aa/Gaussia Luciferase; assay: Dox-Induced Her3-ss-Gluc Assay; assay type: cell-based; settings: 24 hr Dox induction; 293FRT/TO cells; read-out: 24 hr Dox Inducible Her3(ss + 4)Gluc 293FRT/TO: Mean IC50
How it was run: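 Cells were seeded a day ahead, then given compound diluted in DMSO/media with doxycycline to induce expression of the HER3 signal sequence (+4 aa)–Gaussia luciferase fusion. Incubation was at 37° C., 5% CO2, in a stable Flp-In 293 T-REx line.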

[4] = system: IL-2-FL/Gaussia Luciferase; assay: Dox Induced IL2-FL-Gluc Assay; assay type: cell-based; settings: for pIC50: 24 hr Dox induction, 293FRT/TO cells, read-out: 24 hr Dox Inducible IL2FLGluc 293FRT/TO: Mean IC50; for 24 hr Dox Inducible IL2FLGluc 293FRT/TO: IL2/PD1: ratio of IL2FLGluc IC50 to PD1ssGluc IC50
How it was run: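 Cells are plated one day ahead, then receive compound dilutions in DMSO/media with doxycycline and incubate at 37° C, 5% CO2. They are Flp-In 293 T-REx cells expressing a full-length IL-2 (amino acids 1-153)–Gaussia luciferase fusion under T-REx control.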

[5] = system: multiple myeloma cell line NCI-H929; assay: H929 Cell Viability Assay; assay type: cell-based, human; settings: Homo sapiens, NCI-H929, 48 h, NCI-H929 cells, Celltiter-Glo
How it was run: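 Luminescent ATP detection (CellTiter-Glo) after 48 hours of compound exposure measures viability. Cells were plated in RPMI 1640 containing 10% fetal bovine serum and kept at 37° C under 5% CO2.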

[6] = system: multiple myeloma cell line U266B1; assay: U266 Cell Viability Assay; assay type: cell-based, human; settings: Homo sapiens, U-266, 48 h, U266B1 cells, Celltiter-Glo
How it was run: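 Steps: culture in RPMI 1640 plus 10% FBS and 2 mM glutamine; plate and add compound dilutions; incubate 48 hours at 37° C., 5% CO2; add CellTiter-Glo and quantify luciferase signal.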

[7] = Liver Microsome Stability Assay (rat); settings: rat liver microsomes, with NADPH, 1.0 uM compound
Protocol: (§1) Stability of a compound was assessed in the presence of liver microsomes from various sources—mouse, rat, monkey and human liver microsomes. 1.0 uM compound, 0.4% DMSO in 0.1 M Potassium Phosphate with 1.0 mg/mL liver microsomes, were incubated at 37° C. with or without 1 mM NADPH. The samples were quenched at 0, and 30 minutes.

[8] = Liver Microsome Stability Assay (mouse); settings: mouse liver microsomes, with NADPH, 1.0 uM compound
Protocol: as §1

[9] = Liver Microsome Stability Assay (human); settings: human liver microsomes, with NADPH, 1.0 uM compound
Protocol: as §1

[10] = Liver Microsome Stability Assay (monkey); settings: monkey liver microsomes, with NADPH, 1.0 uM compound
Protocol: as §1

Row | SMILES | pIC50 [1] | pIC50 [2] | 24 hr Dox Inducible TNFaFLGluc 293FRT/TO: TNF/PD1 [2] | pIC50 [3] | pIC50 [4] | 24 hr Dox Inducible IL2FLGluc 293FRT/TO: IL2/PD1 [4] | pEC50 [5] | pEC50 [6] | Liver Microsome Stability (Multiple Species): Rat - % Remaining after 30 min w/NADPH [7] [%] | Liver Microsome Stability (Multiple Species): Mouse - % Remaining after 30 min w/NADPH [8] [%] | Liver Microsome Stability (Multiple Species): Human - % Remaining after 30 min w/NADPH [9] [%] | Liver Microsome Stability (Multiple Species): Monkey - % Remaining after 30 min w/NADPH [10] [%]
1 | CC(C)n1cnc(/C=C/c2csc(NC(=O)c3cccn3Cc3ccncc3)n2)c1 [Compound B37, (E)-N-(4-(2-(1-isopropyl-1H-imidazol-4-yl)vinyl)thiazol-2-yl)-1-(pyridin-4-ylmethyl)-1H-pyrrole-2-carboxamide] | 7.17 | < 4.60 | >366 | < 4.60 | < 4.60 | >370 | < 4.60 | < 4.60 | 6.38 | 2.42 | 0.13 | 0.13
2 | CC(C)c1nc(/C=C/c2csc(NC(=O)c3cccn3Cc3ccncc3)n2)co1 [Compound B38, (E)-N-(4-(2-(2-isopropyloxazol-4-yl)vinyl)thiazol-2-yl)-1-(pyridin-4-ylmethyl)-1H-pyrrole-2-carboxamide] | 6.72 | 5.15 | 36.6 | 5.86 | 5.25 | 29 | 5.12 | 5.05 | 1.03 | 6.78 | 0.54 | 0.69
3 | O=C(Nc1nc(/C=C/c2coc(C3CCCCC3)n2)cs1)c1cccn1Cc1ccncc1 [Compound B39, (E)-N-(4-(2-(2-cyclohexyloxazol-4-yl)vinyl)thiazol-2-yl)-1-(pyridin-4-ylmethyl)-1H-pyrrole-2-carboxamide] | 6.57 | 5.19 | 24.1 | 6.02 | 5.71 | 7.3 | 4.99 | 4.88 | 5.38 | 16.5 | 0.27 | 0.47
4 | O=C(Nc1nc(/C=C/c2coc(C3CC3)n2)cs1)c1cccn1Cc1ccncc1 [Compound B40, (E)-N-(4-(2-(2-cyclopropyloxazol-4-yl)vinyl)thiazol-2-yl)-1-(pyridin-4-ylmethyl)-1H-pyrrole-2-carboxamide] | 6.66 | < 4.60 | >113 | 5.78 | 5.34 | 21 | < 4.60 | < 4.60 | 0.73 | 5.73 | 0.48 | 2.25
5 | Cc1coc(/C=C/c2csc(NC(=O)c3cccn3Cc3ccncc3)n2)n1 [Compound B41, (E)-N-(4-(2-(4-methyloxazol-2-yl)vinyl)thiazol-2-yl)-1-(pyridin-4-ylmethyl)-1H-pyrrole-2-carboxamide] | 6.40 | < 4.60 | >62.8 | 5.44 | < 4.78 | >42 | < 4.60 | < 4.60 | 0.15 | 0.36 | 0.18 | 0.44
6 | O=C(Nc1nc(/C=C/c2c[nH]cn2)cs1)c1cccn1Cc1ccncc1 [Compound B42, (E)-N-(4-(2-(1H-imidazol-4-yl)vinyl)thiazol-2-yl)-1-(pyridin-4-ylmethyl)-1H-pyrrole-2-carboxamide] | 5.18 | < 4.60 | >3.74 | < 4.60 | < 4.60 | >3.7 | < 4.60 | < 4.60 | 8.69 | 26.5 | 6.13 | 11.3
7 | O=C(Nc1nc(/C=C/c2cnccn2)cs1)c1cccn1Cc1ccncc1 [Compound B43, (E)-N-(4-(2-(pyrazin-2-yl)vinyl)thiazol-2-yl)-1-(pyridin-4-ylmethyl)-1H-pyrrole-2-carboxamide] | 6.58 | < 4.60 | >94.5 | < 4.60 | < 4.60 | >95 | < 4.60 | < 4.60 | 1.88 | 1.19 | 1.83 | 0.92
8 | O=C(Nc1nc(/C=C/c2ccncn2)cs1)c1cccn1Cc1ccncc1 [Compound B44, (E)-1-(pyridin-4-ylmethyl)-N-(4-(2-(pyrimidin-4-yl)vinyl)thiazol-2-yl)-1H-pyrrole-2-carboxamide] | 5.47 | < 4.60 | >7.44 | < 4.60 | < 4.60 | >7.4 | < 4.60 | < 4.60 | 1.3 | 4.87 | 0.24 | 0.36
